According to US20210054028A1, “BACTERIAL SIDEROPHORE GRAMIBACTIN” (Leibniz-Institut für Naturstoff-Forschung und …, priority 2017, published 2021):
“Also recorded” adds a separate entry of the source. *1 amine or outer side, *2 acyl side, *3 side chain or, on linkers, in order; H or OH if unused. Where a SMILES comes first, the peptide text is derived from it. Bridges are numbered along the chain shown (N, C = ends). [ ]: non-standard residue; d: D form. The star is where a group is joined. dAsp(3R-OH) = N[C@@H](C(=O)O)[C@@H](O)C(=O)O; X1 = O=NN(O)CCC[C@@H](N[*:1])C(=O)[*:2]; d(aThr) = C[C@@H](O)[C@@H](N)C(=O)O; Octanoyl = CCCCCCCC(=O)*

How the values were obtained:
corn plants = experiment: Chlorophyll content determination in hydroponically grown corn plants; assay type: in vivo, Zea mays L. ssp. saccharata; details: 50 μM in nutrient solution; 21 d hydroponic growth; 3rd leaf
Method: Corn plants were grown in nutrient solutions deficient in iron, or supplementing either Fe-EDTA (positive control) or Fe-gramibactin. Solvent and metal-free chelators were used as negative controls. As readout for iron uptake we measured the chlorophyll content of youngest leaves, since chlorophyll biosynthesis is strongly dependent on iron availability (11).
Seeds from maize (Zea mays L. ssp. saccharata) were commercially acquired (Kiepenkerl) and surface sterilized in 4.5% (v/v) sodium hypochlorite for 10 minutes and subsequently rinsed 5 times with 50 mL sterile distilled water. Seeds were germinated in rolled filter papers soaked with sat. CaSO4 solution for 3 d in at 30° C. in the dark. […]
Plants were grown hydroponically for 21 days using the above described adjusted nutrient solution. […] The last developed leaf of each plant (3rd leaf) was removed, and fresh weight was determined. […] The residue was dissolved in 1 mL methanol and 1:10 or 1:20 dilutions with methanol were analysed spectrophotometrically using a Shimadzu UV-1800 spectrophotometer. Samples were measured at 25° C. using discardable plastic cuvettes (d=1 cm). […] Chlorophyll contents were calculated using the equations developed by Wellburn.

[1] = Potentiometric and spectrophotometric titrations of the gramibactin/Fe3+ system with EDTA as competitive chelating agent; assay type: physicochemical; details: I=0.1 M KCl
From the text: (§1) To evaluate the actual strength of the siderophore, we conducted potentiometric and spectrophotometric titrations to evaluate the acid/base behavior of gramibactin and to determine the complex formation constant of the iron complex (FIG. 2C). […] It thus appeared conceivable that the rhizosphere bacteria excrete the metal chelator to provide the host plant with iron.
(§2) Potentiometric ligand competition measurements and calculations have been performed as reported (11) at l=0.1 M in KCl(aq) and at T=25.0±0.1° C., using a Mettler Toledo DL50 apparatus, equipped with a Schott Instruments N6180 combined glass electrode, controlled by LabX light v1.05 software. The titrand solutions consisted in gramibactin (from 0.7 mm to 1 mm), EDTA (as disodium salt) and Fe^3+ (as FeCl3) in different gramibactin:Fe^3+:EDTA ratios, with slight known excess of HCl.
(§3) This can be explained by a buffering effect of the two N-nitroso-hydroxylamine moieties. […]
(§4) Titrations were carried out at 0.1 m in KCl(aq) and T=25.0±0.1° C. in a glass cuvette (d=10.00 mm) placed in the spectrometer equipped with a thermostated cell holder. The pH was read out by using a inoLab pH 7110 with a combination electrode (SI analytics, ScienceLine Type N 6000 A). […] UV/Vis-spectra were recorded after every addition of KOH(aq) followed by magnetic stirring (FIG. 12).

[2] = Acid/base titration and speciation of gramibactin; assay type: physicochemical; details: physiological pH; I=0.1 M KCl; 25 °C
From the text: as §1, §2, §3, §4

[3] = tested on: extracted proteins from corn roots; experiment: In vitro NO release assay with 2,3-diaminonaphthalene probe; assay type: biochemical, Zea mays L. ssp. saccharata; details: 2 mM test substance, 1.2 mM H2O2, 0.2 mM DAN, root proteins, 20 min, pH 6
Method: To probe the proposed enzymatic NO release in vitro, we extracted soluble proteins from ground root tissue of hydroponically grown plants into phosphate buffer. To monitor the liberation of NO in the in vitro enzyme assay, we used 2,3-diaminonaphthalene (DAN) as a reporter. Nitric oxide reacts with this chemical probe to form the 2,3-napthotriazole, and its strong fluorescence can be readily measured using a microplate reader. Extracted root proteins were incubated with the probe, hydrogen peroxide and either Fe-gramibactin or the iron-free ligand, using heat-inactivated proteins as negative control. […] Thus, gramibactin represents a novel NO donor.
One-week-old plants were harvested and the roots were rinsed with distilled water. After separating the roots from the shoot, the root tissue was frozen using liquid nitrogen and grounded with mortar and pestle. The plant material was then extracted using 1 mL 66 mm NaH2PO4 buffer (pH 6). The extract was centrifuged to remove remaining plant material, and 20 μL of the supernatant were used for in vitro assays. […] Fluorescence was measured using a Varioskan LUX (Thermo Scientific) microplate reader (IEx.=375 nm, IEm.=415 nm). Fluorescence values were normalized to the sample with the highest fluorescence. Every assay was performed in triplicates and every replicate was measured three times, and the mean of all these replicates was plotted. […]

corn roots = experiment: In planta NO release assay with DAF-2DA, fluorescence microscopy; assay type: in vivo, Zea mays L. ssp. saccharata; details: 100 μM; 1.5-2 h after loading with 10 μM DAF-2DA
Method: To verify the postulated NO release in planta we treated fresh corn seedlings with diaminofluoresceine-2-diacetate (DAF-2DA), a cell-permeable probe that captures NO with formation of a highly fluorescent triazole. After loading maize roots with the chemical probe they were incubated with negative controls, gramibactin, or Fe-gramibactin, then cut and inspected by fluorescence microscopy. […] Thus, NO is in fact liberated from gramibactin in the plant tissue. A weak signal was also detectable in the root treated with the Fe-gramibactin complex. This finding is important as it confirms that iron is removed from gramibactin in vivo, thus providing free ligands that can subsequently release nitric oxide. Finally, fluorescence microscopy also allowed localizing NO, which is apparently released into the intracellular space. This observation is plausible as peroxidases, which are required for NO release, are typically located in the cell membrane.
Young seedlings (2-3 days old) were placed in a vial containing 4 mL standard nutrient solution (see above) with 10 μm 4,5-diaminofluorescein diacetate and incubated at room temperature for 30 min. Seedlings were then removed, and the root was rinsed with deionized water before placing them in nutrient solution containing 100 μm gramibactin, 100 μm Fe-gramibactin or no additive (control). […]

| SMILES | higher total chlorophyll content versus iron-free cultured plants (corn plants) [%] | log □ (complex formation constant of the iron complex) ([1]; disodium EDTA as competitive chelating agent, T=25.0±0.1 °C) | protons released upon metal complexation ([1]; potentiometric titration, gramibactin:Fe3+ 1:1, 25 °C) | protonation state of graminine residues (speciation diagram) [2] | fluorescence of 2,3-naphthotriazole (NO release) [3] | DAF-2T fluorescence signal in root cross sections (NO release in planta) (corn roots) |
| --- | --- | --- | --- | --- | --- | --- |
| O=C([O-])CN(CCN(CC(=O)[O-])CC(=O)[O-])CC(=O)[O-].[Fe+3] [Fe-EDTA] | 50 |  |  |  |  |  |
| CCCCCCCC(=O)N[C@@H](C(=O)N[C@@H]1C(=O)N[C@H]([C@@H](C)O)C(=O)N[C@H](CCCN(O)N=O)C(=O)NCC(=O)N[C@H](CCCN(O)N=O)C(=O)O[C@@H]1C)[C@@H](O)C(=O)O [gramibactin] (Octanoyl-[dAsp(3R-OH)]T[d(aThr)][X1]G[X1]; ester 2-C) |  | 27.6±0.1 | four | both graminine residues are deprotonated at physiological pH | drastically increased fluorescence; also recorded: liberates NO | strong signal; also recorded: liberates NO |
